Assays:
[1] = tested on: CHO; assay: Inhibition of senktide-evoked increases in intracellular calcium levels in CHO cells measured using the fluorescent indicator Fura 2; type: functional, Cricetulus griseus
[2] = target: T1, Neuromedin-K receptor (Homo sapiens, UniProt P29371); assay: Compound was tested for binding affinity against human Tachykinin receptor 3 in CHO cells; type: cell-based
T1 sequence (P29371 whole entry): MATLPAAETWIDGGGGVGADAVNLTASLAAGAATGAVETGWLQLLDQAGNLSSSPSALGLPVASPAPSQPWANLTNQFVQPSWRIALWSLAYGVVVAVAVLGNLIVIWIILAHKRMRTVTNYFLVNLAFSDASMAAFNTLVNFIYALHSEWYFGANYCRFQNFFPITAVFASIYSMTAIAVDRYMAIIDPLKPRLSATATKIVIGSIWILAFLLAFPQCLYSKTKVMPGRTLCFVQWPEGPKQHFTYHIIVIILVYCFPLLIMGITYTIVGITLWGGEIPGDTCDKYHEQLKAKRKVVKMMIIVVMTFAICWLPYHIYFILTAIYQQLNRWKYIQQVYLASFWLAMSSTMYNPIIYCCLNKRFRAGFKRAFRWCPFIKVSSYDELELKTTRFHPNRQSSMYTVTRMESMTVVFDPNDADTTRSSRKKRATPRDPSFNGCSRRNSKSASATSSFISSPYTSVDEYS

[3] = target: Substance-P receptor (Homo sapiens, UniProt P25103); assay: Compound was tested for binding affinity against human NK1 receptor
Substance-P receptor, sequence (P25103 whole entry): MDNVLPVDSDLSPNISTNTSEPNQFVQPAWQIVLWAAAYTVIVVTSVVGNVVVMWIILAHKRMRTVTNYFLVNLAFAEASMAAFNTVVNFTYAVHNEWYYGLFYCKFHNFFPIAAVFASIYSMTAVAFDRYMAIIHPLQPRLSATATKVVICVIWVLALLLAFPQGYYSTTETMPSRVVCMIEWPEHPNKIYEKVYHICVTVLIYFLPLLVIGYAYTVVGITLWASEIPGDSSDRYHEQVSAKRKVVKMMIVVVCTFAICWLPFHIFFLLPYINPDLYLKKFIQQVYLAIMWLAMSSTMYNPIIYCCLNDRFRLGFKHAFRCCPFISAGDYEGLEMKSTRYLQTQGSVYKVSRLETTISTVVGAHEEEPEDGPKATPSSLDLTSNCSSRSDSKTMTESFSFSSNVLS

Q: How did the Ke [1] turn out when `CC(C)[C@H](OC(=O)N[C@](C)(Cc1ccccc1F)C(=O)NCCCCCCCNC(N)=O)c1ccccc1` was run?
A: 2.2 nM

Q: For `CC(NC(=O)[C@@](C)(Cc1cc2ccccc2[nH]1)NC(=O)OC(c1ccccc1)C(C)C)c1ccccc1` (stereo partly drawn), which IC50 [2] is on record?
A: 1.2 µM

Q: What about the IC50 [3] of the same molecule?
A: 1.4 µM

Reference: ChEMBL document CHEMBL1128788, “The development of a novel series of non-peptide tachykinin NK3 receptor selective antagonists” (Bioorg Med Chem Lett, 1995)
